Experimental findings from ChEMBL document CHEMBL3817769, “Expanding the chemical space of hydrophobic pharmacophores: the role of hydrophobic substructures in the development of novel transcription modulators” (2016) are described below.

For the test, the system named is HL-60. The experiment in a line: Induction of differentiation in human HL60 cells after 20 mins by NBT reduction assay relative to retinoic acid. The class given is functional. Further details: concentration or dose not given beside the values.
`CC(C)(C)c1cc(C(=O)/C=C/c2ccc(C(=O)O)cc2)cc(C(C)(C)C)c1` gave an Activity of 640%.
As for `C[Si](C)(C)c1cc(C(=O)/C=C/c2ccc(C(=O)O)cc2)cc([Si](C)(C)C)c1`, the Activity was determined as 860%.
Under `CC(C)(C)c1cc(C(=O)Nc2ccc(C(=O)O)cc2)cc(C(C)(C)C)c1` stands 5.6%; under “4-[3-(2,5-Bis-trimethylgermanyl-phenyl)-3-oxo-propenyl]-benzoic acid (Ch55G)”, 1000%; under `C[Si](C)(C)c1cc(C(=O)Nc2ccc(C(=O)O)cc2)cc([Si](C)(C)C)c1` [AMSILAROTENE], 53%.
